Assay results taken from patent publication US20210330596A1, “PHARMACEUTICAL COMPOSITION FOR USE IN A COMBINATION WITH CA[…] ENHANCE BENEFITS OF CA[…] SUPPORT HUMAN ENDOCANNABINOID SYSTEM” (priority 2020, published 2021).
Values joined by “and” are separate entries in the source; they are usually repeats but may differ in a detail not shown here. Equal entries are not always repeated.

Test system: mice's endocannabinoid system
Assay: maze and food trial: time the mice need to solve the maze after feed
Type: in vivo
Details: for time to solve the maze, Time 0, individual mouse / time to solve the maze, Time 0, Average: 10 minutes after feed; for time to solve the maze, Time 0, individual mouse / time to solve the maze, Time 1, individual mouse: mouse # 1-10 in table order; for time to solve the maze, Time 0, Average / time to solve the maze, Time 1, Average: ten mice; for time to solve the maze, Time 1, individual mouse / time to solve the maze, Time 1, Average: 120 minutes after feed
Method: In an embodiment, the pharmaceutical composition of the present invention relates to an essential oil rich composition that supports the endocannabinoid system. Following tables 1-5 describe trials conducted with ten mice (Wistar) utilizing a maze and food to determine how long on average the mice solves the maze at 10 and 120 minutes after starting the experiment.
Table 1 is the base when the mice learned the experiment. It took 7 days of training (4 repetitions per day) to get the base time for each mice.
The Average Time results were statistically slower to the Control (Table 3) results with a standard deviation of less than 3%. The slowness with which the mice solved the maze leads us to believe either the embodiment has some entourage effect (as described by Ben-Shabat et. Al. in the European Journal of Pharmacology, 1998) or has supported the endocannabinoid system in mice because the mice took at least as long to solve the maze as before they developed tolerance to THC. The Entourage Effect was also described by Russo et. al. in his paper “Taming THC: potential cannabis synergy and phytocannabinoid-terpenoid entourage effects”, published in the British Journal of Pharmacology, 2011 August; 163(7): 1344-1364.
In this Table we see the results of THC 24 hours after the embodiment was administered. Mice on average take 1-5 hours to digest food. It is estimated that mice will have completely metabolized the embodiment after 24 hours. After THC was administered but now without the embodiment, mice are experiencing the same heightened effects of THC as in FIG. 4, even after the embodiment was not present in their body after a 24 hour period.

[1] = Day 1 CONTROL, 0.3 mgTHC/kg, before tolerance
[2] = Day 14 BASELINE 2 (acquired tolerance), 0.3 mgTHC/kg/day
[3] = TRIAL 2, 0.3 mgTHC + 0.0 mg embodiment/kg, THC 24 hours after the embodiment was administered

CCCCCc1cc(O)c2c(c1)OC(C)(C)[C@@H]1CCC(C)=C[C@@H]21 [THC, Tetrahydrocannabinol]
time to solve the maze, Time 0, individual mouse [1]: 16 ± 3 minutes and 17 ± 3 minutes (2×) and 23 ± 3 minutes and 20 ± 3 minutes and 25 ± 3 minutes and 30 ± 3 minutes and 26 ± 3 minutes and 19 ± 3 minutes and 24 ± 3 minutes
time to solve the maze, Time 0, Average [1]: 22 ± 3 min
time to solve the maze, Time 1, individual mouse [1]: 14 ± 3 minutes (2×) and 10 ± 3 minutes (2×) and 19 ± 3 minutes (2×) and 22 ± 3 minutes (2×) and 21 ± 3 minutes and 16 ± 3 minutes
time to solve the maze, Time 1, Average [1]: 17 ± 3 min
time to solve the maze, Time 0, individual mouse [2]: 16 ± 3 minutes (2×) and 19 ± 3 minutes (2×) and 18 ± 3 minutes (2×) and 14 ± 3 minutes and 13 ± 3 minutes and 12 ± 3 minutes and 11 ± 3 minutes
time to solve the maze, Time 0, Average [2]: 14 ± 3 min
time to solve the maze, Time 1, individual mouse [2]: 14 ± 3 minutes and 15 ± 3 minutes (2×) and 12 ± 3 minutes and 10 ± 3 minutes (4×) and 11 ± 3 minutes (2×)
time to solve the maze, Time 1, Average [2]: 12 ± 3 min
time to solve the maze, Time 0, individual mouse [3]: 27 ± 3 minutes (2×) and 20 ± 3 minutes and 22 ± 3 minutes (2×) and 17 ± 3 minutes and 16 ± 3 minutes and 21 ± 3 minutes and 18 ± 3 minutes and 29 ± 3 minutes
time to solve the maze, Time 0, Average [3]: 22 ± 3 min
time to solve the maze, Time 1, individual mouse [3]: 22 ± 3 minutes and 19 ± 3 minutes (2×) and 16 ± 3 minutes and 23 ± 3 minutes and 15 ± 3 minutes and 12 ± 3 minutes and 9 ± 3 minutes and 17 ± 3 minutes and 20 ± 3 minutes
time to solve the maze, Time 1, Average [3]: 17 ± 3 min
maze solved faster on average than the Control Time, T0 (after 15 days of daily THC dose of 0.3 mgTHC/kg, Time 0 (10 minutes after feed), tolerance to THC): 40%
maze solved faster on average than the Control Time, T1 (after 15 days of daily THC dose of 0.3 mgTHC/kg, Time 1 (120 minutes after feed), tolerance to THC): up to 60%
